In US20230277533A1, “THERAPEUTIC COMBINATIONS COMPRISING UBIQUITIN-SPECIFIC-PROCESSING PROTEASE 1 (USP1) INHIBITORS AND POLY (ADP-RIBOSE) POLYMERASE (PARP) INHIBITORS” (KSQ Therapeutics, Inc., priority 2020, published 2023):
Read-outs that look alike come from different tables or passages of the source.

Experiments:
Test in all cases: Colony formation (CFU) assay
Type in all cases: cell-based
ES2 = conditions: Homo sapiens, ES-2; ES2, ovary
Protocol: (§1) In vitro experiments were conducted using the colony formation unit (CFU) assay on various cell lines. The CFU assay involved first establishing what cell plating density enabled the development of clearly interspersed colonies on a six-well plate when left to grow for around 14 days. […] Media was changed on day 8 containing appropriate concentrations of DMSO, USP1 inhibitor, Niraparib, or Olaparib. At or around day 14 when clearly interspersed colonies were visible in the DMSO treated wells, the cells were fixed and stained using 0.1% crystal violet in 10% ethanol for 20 minutes at room temperature. The plates were imaged then the amount of crystal violet stain in each well was quantified by extracting the crystal violet into 10% acetic acid and the absorbance measured at 565 nm.
(§2) IC50 values were calculated by fitting a two-parameter hill equation to the dose-response measurements. Non-linear-least-squares was used to find parameter values that minimize the squared error of the model fit to measured dose response. Non-linear-least-squares estimation was performed using the minpack.lm R package, version 1.2-1. Bliss synergy scores were calculated using the synergyfinder R package version 1.6.1.

QGP1 = conditions: QGP-1; QGP1, pancreas
Protocol: as §1, §2

HBCx13B = conditions: breast
Protocol: as §1, §2

143B = conditions: Homo sapiens, bone
Protocol: as §1, §2

SAOS2 = conditions: Homo sapiens, SAOS-2; SAOS2, bone
Protocol: as §1, §2

LNCAP = conditions: Homo sapiens, prostate
Protocol: as §1, §2

HS695T = conditions: Homo sapiens, Hs 695T, skin
Protocol: as §1, §2

CAOV3 = conditions: Homo sapiens, Caov-3; CAOV3, ovary
Protocol: as §1, §2

YD38 = conditions: YD38, head and neck
Protocol: as §1, §2

OVSAHO = conditions: Homo sapiens, ovary
Protocol: as §1, §2

SKOV3_BRCA1null = conditions: ovary
Protocol: as §1, §2

JHH7 = conditions: JHH7, liver
Protocol: as §1, §2

KYSE140 = conditions: Homo sapiens, KYSE-140; KYSE140, esophagus
Protocol: as §1, §2

KP3 = tested on: KP3
Protocol: as §1, §2

DMS53 = conditions: Homo sapiens, DMS-53; DMS53, lung
Protocol: as §1, §2

DOTC24510 = conditions: Homo sapiens, DoTc2-4510; DOTC24510, cervix
Protocol: as §1, §2

SCC15 = conditions: Homo sapiens, SCC-15; SCC15, head and neck
Protocol: as §1, §2

TGBC1TKB = conditions: biliary tract
Protocol: as §1, §2

HBCx2 = conditions: HBCx2, breast
Protocol: as §1, §2

SKMEL24 = conditions: Homo sapiens, SK-MEL-24; SKMEL24, skin
Protocol: as §1, §2

59M = conditions: ovary
Protocol: as §1, §2

HS578T = conditions: Homo sapiens, Hs-578T, breast
Protocol: as §1, §2

FADU = conditions: Homo sapiens, head and neck
Protocol: as §1, §2

U251MG = conditions: Homo sapiens, U-251, nervous system
Protocol: as §1, §2

HCC202 = conditions: HCC202, breast
Protocol: as §1, §2

HBCx19 = conditions: HBCx19, breast
Protocol: as §1, §2

UMUC3 = conditions: Homo sapiens; UMUC3, bladder
Protocol: as §1, §2

SJSA1 = conditions: Homo sapiens, SJSA-1; SJSA1, bone
Protocol: as §1, §2

KYSE410 = conditions: Homo sapiens, KYSE-410; KYSE410, esophagus
Protocol: as §1, §2

KYSE270 = conditions: Homo sapiens, KYSE-270; KYSE270, esophagus
Protocol: as §1, §2

HCC1937 = conditions: Homo sapiens; HCC1937, breast
Protocol: as §1, §2

SNU119 = conditions: SNU119, ovary
Protocol: as §1, §2

TE9 = conditions: Homo sapiens, TE-9; TE9, esophagus
Protocol: as §1, §2

HBCx3 = conditions: HBCx3, breast
Protocol: as §1, §2

HS739T = conditions: breast
Protocol: as §1, §2

TE14 = conditions: TE14, esophagus
Protocol: as §1, §2

SNU81 = conditions: SNU81, colon
Protocol: as §1, §2

HCC2108 = conditions: HCC2108, lung
Protocol: as §1, §2

Compound | IC50 (ES2) [nM] | IC50 (QGP1) [nM] | IC50 (HBCx13B) [nM] | IC50 (143B) [nM] | IC50 (SAOS2) [nM] | IC50 (LNCAP) [nM] | IC50 (HS695T) [nM] | IC50 (CAOV3) [nM] | IC50 (YD38) [nM] | IC50 (OVSAHO) [nM] | IC50 (SKOV3_BRCA1null) [nM] | IC50 (JHH7) [nM] | IC50 (KYSE140) [nM] | IC50 (DMS53) [nM] | IC50 (DOTC24510) [nM] | IC50 (SCC15) [nM] | IC50 (TGBC1TKB) [nM] | IC50 (HBCx2) [nM] | IC50 (SKMEL24) [nM] | IC50 (59M) [nM] | other results
COc1ncnc(C2CC2)c1-c1ncc2cnn(Cc3ccc(-c4nc(C(F)(F)F)cn4C)cc3)c2n1 [Formula II, 6-(4-cyclopropyl-6-methoxypyrimidin-5-yl)-1-(4-(1-methyl-4-(trifluoromethyl)-1H-imidazol-2-yl)benzyl)-1H-pyrazolo[3,4-d]pyrimidine] | 27.5 | > 300 | > 300 | > 300 | > 300 | > 300 | > 300 | 27.8 | > 300 | > 300 | > 300 | > 300 | > 300 | > 300 | > 300 | 28 | > 300 | > 300 | > 300 | 34.9 | IC50 (KP3): > 300 nM; IC50 (HS578T): > 300 nM; IC50 (FADU): > 300 nM; IC50 (U251MG): > 300 nM; IC50 (HCC202): > 300 nM; IC50 (HBCx19): > 300 nM; IC50 (UMUC3): > 300 nM; IC50 (SJSA1): > 300 nM; IC50 (KYSE410): > 300 nM; IC50 (KYSE270): > 300 nM; IC50 (HCC1937): > 300 nM; IC50 (SNU119): > 300 nM; IC50 (TE9): > 300 nM; IC50 (HBCx3): > 300 nM; IC50 (HS739T): > 300 nM; IC50 (TE14): > 300 nM; IC50 (SNU81): 10.2 nM; IC50 (HCC2108): > 300 nM
NC(=O)c1cccc2cn(-c3ccc([C@@H]4CCCNC4)cc3)nc12 [Niraparib, niraparib, reference compound] | > 300 | > 300 | > 300 | > 300 | 201 | > 300 | 36.9 | 241 | > 300 | > 300 | 262 | > 300 | > 300 | 168 | 30.4 | > 300 | > 300 | > 300 | > 300 | 63.4 | IC50 (KP3; KP3, pancreas, read-out: IC50): > 300 nM; IC50 (HS578T): > 300 nM; IC50 (FADU): > 300 nM; IC50 (U251MG): > 300 nM; IC50 (HCC202): 103 nM; IC50 (HBCx19): > 300 nM; IC50 (UMUC3): > 300 nM; IC50 (SJSA1): > 300 nM; IC50 (KYSE410): > 300 nM; IC50 (KYSE270): 16.9 nM; IC50 (HCC1937): 244 nM; IC50 (SNU119): 39 nM; IC50 (TE9): > 300 nM; IC50 (HBCx3): 20.8 nM; IC50 (HS739T): > 300 nM; IC50 (TE14): > 300 nM; IC50 (SNU81): 18.6 nM; IC50 (HCC2108): 95.5 nM
